Numbered stars: 1 amine (or outer) side, 2 acyl side, 3 side chain; on linkers, the order of the positions; unused ones are H or OH. Bridge positions count the residues as written; N and C are the ends. Ends that are not written are not given here. Peptide text beside a SMILES is read from it. mXylylene = c1cc(C[*:1])cc(C[*:2])c1

The source of these data is publication PMC11101637, “Bioinformatics leading to conveniently accessible, helix enforcing, bicyclic ASX motif mimics (BAMMs)” (Nature Communications, 2024).

One data set can be described thus: circular dichroism. As to conditions: PBS; pH 7.4; 25 °C; 5-30 uM. (In general: CD spectra are sensitive to the conformation of chiral molecules.)
A short description of data set [1]: CD spectroscopy: percent helicity and ellipticity ratio 222/208 nm. It is filed as physicochemical. As to conditions: for % helicity: 5-30 μM peptide, three scans averaged, [θ]222/[θ]max. As to the method:
Circular dichroism (CD) experiments
Concentrations of the stock solution were determined by […] absorption of Trp or 275 nm absorption of Tyr (and TMB, if present in peptides). Each sample was dissolved in 1x PBS (pH 7.4), 10% TFE/PBS or 20% TFE/PBS with the final concentration between 5 to 30 μM. CD spectra were acquired using circular dichroism spectrometer (Chirascan) equipped with a temperature controller using 1 mm cell at a scan speed of 0.5 nm/sec at indicated temperature. Each sample was scanned three times and the averaged spectrum was smoothed.
Calculation of percent helicity
For simplicity, ‘helicity’ or ‘helical’ in the following text all refers to α-type. For each peptide, mean residue ellipticities ([θ]/(c*n), c = concentration of the peptide, n = number of amino acids in the peptide) were used to calculate % helicity, which is an empirical indicator of peptide helicity. […] (n = number of amino acids in the peptide, T = 25.0 °C).

A short description of data set [2]: Amide H-D exchange study (NMR), protection factors. Particulars: for H/D exchange experiment, per-residue value (Fig 5i): amide H-D exchange by NMR. Format: physicochemical. The protocol: Lyophilized samples of peptides LDLL 12-mer and bicyclo 12-mer from the above experiments were dissolved in 600 µL of D2O/ TFE-d3 mixture (4:1) to initialize the H-D exchange. The pH of the solution was confirmed. Spectra were recorded on a preshimmed Bruker AVANCE 500 MHz spectrometer. The recorded temperature was 33 °C. The intensity changes for each amide proton were determined by monitoring either the NH peaks on 1D spectra or the cross-peaks between NH and RH on 2D TOCSY spectra when overlapping was severe. The peak intensity data was fit into one phase exponential equation to get the exchange rate constants using GraphPad Prism 6.0 program. The rate constants were input into Englander lab’s spreadsheet (https://hx2.med.upenn.edu/download.html) to calculate protection factor and stabilization energy.

Setting [3] is: CD in PBS buffer (pH 7.4, 10 mM), 25.0 °C, 1 mm cell.

With `C[C@H](NC(=O)[C@H](CCCCN)NC(=O)[C@H](C)NC(=O)[C@H](C)NC(=O)[C@H](C)NC(=O)[C@@H]1CSCc2cc3cc(c2)CSC[C@H](NC(=O)[C@@H](N)Cc2c[nH]c4ccccc24)C(=O)N[C@@H](CC(=O)O)C(=O)N[C@@H](C)C(=O)N[C@@H](C)C(=O)N[C@@H](CSC3)C(=O)N1)C(N)=O`, the helicity in “circular dichroism” was 59%.
Same read-out and setting: the figure for `C[C@H](NC(=O)[C@H](CCCCN)NC(=O)[C@H](C)NC(=O)[C@H](C)NC(=O)[C@H](C)NC(=O)[C@@H]1CSCc2cccc(c2)CSC[C@H](NC(=O)[C@@H](N)Cc2c[nH]c3ccccc23)C(=O)N[C@@H](CC(=O)O)C(=O)N[C@@H](C)C(=O)N[C@@H](C)C(=O)N[C@@H](C)C(=O)N1)C(N)=O` (H-WCDAAACAAAKA-NH2; linker 2-7 via mXylylene) is 34%; for `C[C@H](NC(=O)[C@H](CCCCN)NC(=O)[C@H](C)NC(=O)[C@H](C)NC(=O)[C@H](C)NC(=O)[C@H](C)NC(=O)[C@@H]1CSCc2cccc(c2)CSC[C@H](NC(=O)[C@@H](N)Cc2c[nH]c3ccccc23)C(=O)N[C@@H](CC(=O)O)C(=O)N[C@@H](C)C(=O)N[C@@H](C)C(=O)N1)C(N)=O` (H-WCDAACAAAAKA-NH2; linker 2-6 via mXylylene) it is 32%.
In the data set “circular dichroism”, `CSC[C@H](NC(=O)[C@H](C)NC(=O)[C@H](CCC(N)=O)NC(=O)[C@H](CC(=O)O)NC(=O)[C@@H](N)CSC)C(=O)N[C@@H](CSC)C(=O)N[C@@H](CC(C)C)C(=O)N[C@@H](CC(C)C)C(=O)N[C@@H](CCCNC(=N)N)C(=O)N[C@@H](C)C(=O)N[C@@H](CC(C)C)C(=O)N[C@@H](CC(=O)O)C(=O)N[C@@H](CCC(N)=O)C(=O)N[C@@H](Cc1ccc(O)cc1)C(N)=O` [2m] (H-C(Me)DQAC(Me)C(Me)LLRALDQY-NH2; N-terminus and C-terminus assumed) came in with a helicity of 10%. The “ellipticity ratio 222/208 nm” value is given as 0.44 in data set [1] (CD in 10% TFE/PBS, 25 °C) and 0.23 in data set [1] (CD in PBS, 25 °C). Further, the “% helicity” value in data set [1] (CD in 10% TFE/PBS, 25 °C) is given as 24%; in data set [1] (setting [3]) it was 10%.
In the case of `C[C@H](NC(=O)[C@H](CCCCN)NC(=O)[C@H](C)NC(=O)[C@H](C)NC(=O)[C@H](C)NC(=O)[C@@H]1CSCc2cc3cc(c2)CSC[C@H](NC(=O)[C@@H](N)Cc2c[nH]c4ccccc24)C(=O)N[C@@H](CC(=O)O)C(=O)N[C@@H](C)C(=O)N[C@@H](C)C(=O)N[C@@H](CSC3)C(=O)N1)C(N)=O` [Bicyclo-short], the “H/D exchange experiment, per-residue value (Fig 5i)” value is on record as 1.33 in data set [2] (resi ID 3); 1.81 in data set [2] (resi ID 4); 2.88 in data set [2] (resi ID 5); 3.7 in data set [2] (resi ID 6); 2.57 in data set [2] (resi ID 7); 2.46 in data set [2] (resi ID 8). For the same compound, the “H/D exchange experiment, per-residue value (Fig 5i)” value in data set [2] (resi ID 9) is listed as 2.32; in data set [2] (resi ID 10), 2.24.
Turning to `C[C@H](NC(=O)[C@H](CCCCN)NC(=O)[C@H](C)NC(=O)[C@H](C)NC(=O)[C@H](C)NC(=O)[C@@H]1CSCc2cc3cc(c2)CSC[C@H](NC(=O)[C@@H](N)Cc2c[nH]c4ccccc24)C(=O)N[C@@H](CC(=O)O)C(=O)N[C@@H](C)C(=O)N[C@@H](C)C(=O)N[C@@H](CSC3)C(=O)N1)C(N)=O` [bicyclo 12-mer], in data set [2] (D2O/TFE-d3 (4:1), 33 °C, NMR 500 MHz), the “protection factors (H/D exchange) around the capping region” value is “significantly higher than for the linear LDLL 12-mer”. Moreover, the “ellipticity ratio 222/208 nm” value in data set [1] (CD in 10% TFE/PBS, 25 °C) was found to be 1.21; in data set [1] (CD in PBS, 25 °C), 0.76. The “% helicity” value is on record as 72% in data set [1] (CD in 10% TFE/PBS, 25 °C) and 59% in data set [1] (setting [3]).
With “Ac-AAAAKAAAAKAAAAKAAAAKAW-NH2 [AAKA 22-mer]”, the helicity in “circular dichroism” was determined as 64%. Besides, in data set [1] (setting [3]), the “% helicity” value was 64%.
In turn, Ac-AAAAKAAAAKAAAAKAW-NH2 [AAKA] registered a helicity in “circular dichroism” of 48%. Further, in data set [1] (setting [3]), the “% helicity” value is 48%.
In “circular dichroism”, Ac-AAAAKAAAAKAW-NH2 [AAKA 12-mer] gave a helicity of 17%. Also, the “ellipticity ratio 222/208 nm” value worked out at 0.47 in data set [1] (CD in 10% TFE/PBS, 25 °C) and 0.26 in data set [1] (CD in PBS, 25 °C). The “% helicity” value in data set [1] (CD in 10% TFE/PBS, 25 °C) was 35%; in data set [1] (setting [3]) it was 17%.
With Ac-ADAAAAAAAKAAAAKAW-NH2 [ADAA], the helicity in “circular dichroism” stood at 55%. Moreover, in data set [1] (setting [3]), the “% helicity” value is on record as 55%.
For Ac-ADAALLAAAKAAAAKAW-NH2 [ADLL], in “circular dichroism”, the helicity turned out to be 45%. Besides, in data set [1] (setting [3]), the “% helicity” value worked out at 45%.
On to Ac-FDAALLAAAKAAAAKAW-NH2 [FDLL], for which the helicity in the data set “circular dichroism” amounted to 53%. For the same compound, in data set [1] (setting [3]), the “% helicity” value is listed as 53%.
For Ac-IDAALLAAAKAAAAKAW-NH2 [IDLL], the helicity in “circular dichroism” stood at 69%. Besides, the “% helicity” value in data set [1] (setting [3]) was determined as 69%.
The compound Ac-LAAALLAAAKAAAAKAW-NH2 [LALL] displayed a helicity in the data set “circular dichroism” of 45%. Also, the “% helicity” value in data set [1] (setting [3]) is reported as 45%.
Consider Ac-LDAAALAAAKAAAAKAW-NH2 [LDAL], for which the helicity in “circular dichroism” is 69%. The “% helicity” value in data set [1] (setting [3]) is reported as 69%.
In “circular dichroism”, Ac-LDAAELAAAKAAAAKAW-NH2 [LDEL] had a helicity of 52%. For the same compound, the “% helicity” value in data set [1] (setting [3]) is 52%.
Ac-LDAAFLAAAKAAAAKAW-NH2 [LDFL] returned a helicity in the data set “circular dichroism” of 69%. The “% helicity” value in data set [1] (setting [3]) was 69%.
In the data set “circular dichroism”, Ac-LDAALAAAAKAAAAKAW-NH2 [LDLA] came in with a helicity of 39%. The “% helicity” value in data set [1] (setting [3]) is 39%.
Compound Ac-LDAALFAAAKAAAAKAW-NH2 [LDLF] came in with a helicity in “circular dichroism” of 83%. The “% helicity” value in data set [1] (setting [3]) is reported as 83%.
For the compound Ac-LDAALIAAAKAAAAKAW-NH2 [LDLI], the helicity in “circular dichroism” was determined as 52%. Also, the “% helicity” value in data set [1] (setting [3]) is recorded as 52%.
Regarding “Ac-LDAALLAAAKAAAAKAAAAKAW-NH2 [LDLL 22-mer]”, in the data set “circular dichroism”, the helicity was determined as 101%. Besides, the “% helicity” value in data set [1] (setting [3]) is on record as 101%.
As to Ac-LDAALLAAAKAAAAKAW-NH2 [LDLL], the helicity in the data set “circular dichroism” was 93%. For the same compound, in data set [1] (setting [3]), the “% helicity” value is 93%.
Regarding Ac-LDAALLAAAKAW-NH2, the helicity in the data set “circular dichroism” amounted to 28%.
With Ac-LDAALLAAAKAW-NH2 [LDLL 12-mer], the “ellipticity ratio 222/208 nm” value is recorded as 0.57 in data set [1] (CD in 10% TFE/PBS, 25 °C) and 0.39 in data set [1] (CD in PBS, 25 °C). Besides, the “% helicity” value worked out at 43% in data set [1] (CD in 10% TFE/PBS, 25 °C) and 28% in data set [1] (setting [3]).
Regarding Ac-LDAALLAAAKAW-NH2 [LDLL-short], the “H/D exchange experiment, per-residue value (Fig 5i)” value is recorded as 0.3 in data set [2] (resi ID 1); 1.3 in data set [2] (resi ID 3); 1.66 in data set [2] (resi ID 4); 1.96 in data set [2] (resi ID 5); 1.83 in data set [2] (resi ID 6); 1.96 in data set [2] (resi ID 7). In addition, the “H/D exchange experiment, per-residue value (Fig 5i)” value is reported as 2.2 in data set [2] (resi ID 9), 1.69 in data set [2] (resi ID 10) and 1.68 in data set [2] (resi ID 11).
On to Ac-LDAALVAAAKAAAAKAW-NH2 [LDLV], for which, in the data set “circular dichroism”, the helicity was 70%. For the same compound, the “% helicity” value in data set [1] (setting [3]) amounted to 70%.
On to Ac-LDAAQLAAAKAAAAKAW-NH2 [LDQL], for which the helicity in the data set “circular dichroism” was 37%. Also, in data set [1] (setting [3]), the “% helicity” value is 37%.
In “circular dichroism”, Ac-LDAASLAAAKAAAAKAW-NH2 [LDSL] showed a helicity of 67%. For the same compound, the “% helicity” value in data set [1] (setting [3]) was found to be 67%.
In the data set “circular dichroism”, Ac-LDAATLAAAKAAAAKAW-NH2 [LDTL] showed a helicity of 63%. In addition, the “% helicity” value in data set [1] (setting [3]) was 63%.
Ac-QAEELLRALDQY-NH2 [2l]: in the data set “circular dichroism”, the helicity turned out to be 13%. For the same compound, the “ellipticity ratio 222/208 nm” value in data set [1] (CD in 10% TFE/PBS, 25 °C) amounted to 0.53; in data set [1] (CD in PBS, 25 °C), 0.27. Moreover, the “% helicity” value in data set [1] (CD in 10% TFE/PBS, 25 °C) amounted to 23%; in data set [1] (setting [3]) it was 13%.
As to Ac-QVARQLAEIY-NH2 [1l], the helicity in the data set “circular dichroism” was 16%. For the same compound, the “ellipticity ratio 222/208 nm” value in data set [1] (CD in 10% TFE/PBS, 25 °C) worked out at 0.64; in data set [1] (CD in PBS, 25 °C) it was 0.48. For the same compound, the “% helicity” value is 20% in data set [1] (CD in 10% TFE/PBS, 25 °C) and 16% in data set [1] (setting [3]).
The compound Ac-VDAALLAAAKAAAAKAW-NH2 [VDLL] gave a helicity in the data set “circular dichroism” of 48%. Also, the “% helicity” value in data set [1] (setting [3]) turned out to be 48%.
Turning to “WCAAACCAAAKA (also: bicyclic or more (positions not given here)) [bicyclo-D/A 12-mer, bicyclo 12-mer with Asp Ncap replaced with Ala]”, the “reduction of helicity on substitution of Asp Ncap by Ala” value in data set [1] (CD in PBS, relative to bicyclo 12-mer) turned out to be 49%.
